Data on 10 compounds can be found in ChEMBL document CHEMBL1201862, “PubChem BioAssay data set” (2004).

Structures are written as SMILES. The source made the active and inactive calls.

Usually AC50 stands for the concentration giving half of the maximal activity seen. For orientation: EC50 means the midpoint of the concentration-response curve. What is called CC50 is the concentration that lowers cell viability or growth by half.

For experiment [1], the target named is Beta-galactosidase (Escherichia coli, UniProt Q8VNN2). As to the kind of experiment: Dose response counterscreen for EBI2 assay utilizing the enzyme, b-galactosidase. Format: functional. (The purpose of a counterscreen is to sort out artefacts and off-target activity.)
The target in experiment [2] is T1, Insulin-degrading enzyme (Homo sapiens, UniProt P14735).
T1 sequence (P14735 whole entry): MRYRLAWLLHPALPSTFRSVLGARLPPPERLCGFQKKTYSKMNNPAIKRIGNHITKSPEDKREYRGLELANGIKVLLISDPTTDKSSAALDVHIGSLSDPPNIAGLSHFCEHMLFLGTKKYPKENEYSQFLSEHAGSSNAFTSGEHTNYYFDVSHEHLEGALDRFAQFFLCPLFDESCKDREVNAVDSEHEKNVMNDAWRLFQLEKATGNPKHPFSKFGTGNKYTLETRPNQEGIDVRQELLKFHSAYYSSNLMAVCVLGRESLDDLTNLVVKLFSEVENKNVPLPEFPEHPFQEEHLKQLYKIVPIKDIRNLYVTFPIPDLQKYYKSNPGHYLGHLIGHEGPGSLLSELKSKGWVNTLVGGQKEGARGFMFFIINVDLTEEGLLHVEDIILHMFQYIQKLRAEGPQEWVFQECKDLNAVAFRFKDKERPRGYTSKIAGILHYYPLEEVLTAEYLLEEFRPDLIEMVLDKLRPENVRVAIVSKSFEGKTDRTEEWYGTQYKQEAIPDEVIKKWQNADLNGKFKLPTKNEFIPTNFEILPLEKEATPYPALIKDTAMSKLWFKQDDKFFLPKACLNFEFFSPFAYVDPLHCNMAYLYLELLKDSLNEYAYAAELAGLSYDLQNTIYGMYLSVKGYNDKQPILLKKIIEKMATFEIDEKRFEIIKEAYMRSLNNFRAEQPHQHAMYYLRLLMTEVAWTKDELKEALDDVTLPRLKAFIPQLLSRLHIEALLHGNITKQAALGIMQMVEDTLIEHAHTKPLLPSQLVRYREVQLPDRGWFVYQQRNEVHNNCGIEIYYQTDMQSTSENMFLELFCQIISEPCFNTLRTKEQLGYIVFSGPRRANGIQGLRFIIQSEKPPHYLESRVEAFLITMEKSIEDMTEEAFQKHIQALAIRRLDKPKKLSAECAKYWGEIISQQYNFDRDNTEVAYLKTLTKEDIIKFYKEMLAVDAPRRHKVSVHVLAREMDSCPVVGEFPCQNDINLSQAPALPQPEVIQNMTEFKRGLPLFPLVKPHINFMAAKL
Put plainly: Dose Response: Fluorescence polarization-based cell-based high throughput dose response assay for inhibitors of insulin-degrading enzyme (IDE). [Related pubchem assays: 434962 (Primary screen (IDE inhibitors in singlicate)), 449730 (Counterscreen (Cytotoxicity in triplicate)), 435028 (Confirmation (IDE inhibitors in triplicate)), 434984 (Summary …. The experiment is classed as functional. On the technique in general: Polarisation of emitted light reports the rotation of a fluorescent probe.

Experiment [3] deals with T2, Sentrin-specific protease 1 (Homo sapiens, UniProt Q9P0U3).
T2 sequence (Q9P0U3 whole entry): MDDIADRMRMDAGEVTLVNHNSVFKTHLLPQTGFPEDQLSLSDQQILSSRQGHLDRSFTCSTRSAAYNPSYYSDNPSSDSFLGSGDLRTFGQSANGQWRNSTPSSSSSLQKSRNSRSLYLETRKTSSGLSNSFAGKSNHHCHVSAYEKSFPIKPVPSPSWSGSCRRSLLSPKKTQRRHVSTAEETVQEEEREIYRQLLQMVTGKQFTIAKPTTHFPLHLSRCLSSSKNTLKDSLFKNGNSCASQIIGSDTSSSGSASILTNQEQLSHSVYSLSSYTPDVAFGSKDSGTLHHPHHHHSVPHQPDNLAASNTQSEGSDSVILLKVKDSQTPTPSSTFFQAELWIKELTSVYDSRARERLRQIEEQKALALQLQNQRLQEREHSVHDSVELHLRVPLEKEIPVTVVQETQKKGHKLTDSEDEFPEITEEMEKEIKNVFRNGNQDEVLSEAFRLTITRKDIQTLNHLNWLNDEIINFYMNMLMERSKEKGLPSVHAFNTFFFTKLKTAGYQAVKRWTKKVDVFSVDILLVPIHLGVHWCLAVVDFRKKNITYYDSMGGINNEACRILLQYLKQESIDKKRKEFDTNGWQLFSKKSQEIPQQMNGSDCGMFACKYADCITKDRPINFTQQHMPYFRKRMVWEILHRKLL
As to the kind of experiment: potency of human SENP1 inhibitors, dose response, biochemical, kinetic FRET (AID 651697). Format: functional. As to conditions: read-out: IC50_Mean.

Experiment [4] in a line: Counterscreen for IDE inhibitors: Luminescence-based cell-based high throughput dose response assay to identify compounds that are cytotoxic to HEK cells. [Related pubchem assays: 434962 (Primary screen (IDE inhibitors in singlicate)), 449730 (Counterscreen (Cytotoxicity in triplicate)), 435028 (Confirmation (IDE inhibitors in triplicate)) …. As to conditions: HEK293. Format: functional.

In experiment [5] the target is T2, Sentrin-specific protease 1. Put plainly: Dose response confirmation of small molecule inhibitors of the catalytic domain of the SUMO protease, SENP1 in a FRET assay. The experiment is classed as functional. As to conditions: read-out: IC50_Mean.
Experiment [6] deals with T3, Carboxy-terminal domain RNA polymerase II polypeptide A small phosphatase 1 (Homo sapiens, UniProt Q9GZU7).
T3 sequence (Q9GZU7 whole entry): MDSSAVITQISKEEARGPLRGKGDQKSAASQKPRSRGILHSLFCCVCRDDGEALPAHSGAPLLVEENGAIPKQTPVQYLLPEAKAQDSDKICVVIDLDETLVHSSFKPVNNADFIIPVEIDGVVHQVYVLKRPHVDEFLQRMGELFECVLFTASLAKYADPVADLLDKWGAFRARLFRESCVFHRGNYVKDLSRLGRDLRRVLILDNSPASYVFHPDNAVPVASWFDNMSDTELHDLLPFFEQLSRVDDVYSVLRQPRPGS
As to the kind of experiment: inhibitors of CTDSP1, concentration-response testing, biochemical assay, absorbance-based, actives from ultra-high-throughput screening (AID 540297). Format: functional.

For experiment [7], the target named is T4, Aminopeptidase N (Plasmodium falciparum FcB1/Columbia, UniProt O96935).
T4 sequence (O96935 whole entry): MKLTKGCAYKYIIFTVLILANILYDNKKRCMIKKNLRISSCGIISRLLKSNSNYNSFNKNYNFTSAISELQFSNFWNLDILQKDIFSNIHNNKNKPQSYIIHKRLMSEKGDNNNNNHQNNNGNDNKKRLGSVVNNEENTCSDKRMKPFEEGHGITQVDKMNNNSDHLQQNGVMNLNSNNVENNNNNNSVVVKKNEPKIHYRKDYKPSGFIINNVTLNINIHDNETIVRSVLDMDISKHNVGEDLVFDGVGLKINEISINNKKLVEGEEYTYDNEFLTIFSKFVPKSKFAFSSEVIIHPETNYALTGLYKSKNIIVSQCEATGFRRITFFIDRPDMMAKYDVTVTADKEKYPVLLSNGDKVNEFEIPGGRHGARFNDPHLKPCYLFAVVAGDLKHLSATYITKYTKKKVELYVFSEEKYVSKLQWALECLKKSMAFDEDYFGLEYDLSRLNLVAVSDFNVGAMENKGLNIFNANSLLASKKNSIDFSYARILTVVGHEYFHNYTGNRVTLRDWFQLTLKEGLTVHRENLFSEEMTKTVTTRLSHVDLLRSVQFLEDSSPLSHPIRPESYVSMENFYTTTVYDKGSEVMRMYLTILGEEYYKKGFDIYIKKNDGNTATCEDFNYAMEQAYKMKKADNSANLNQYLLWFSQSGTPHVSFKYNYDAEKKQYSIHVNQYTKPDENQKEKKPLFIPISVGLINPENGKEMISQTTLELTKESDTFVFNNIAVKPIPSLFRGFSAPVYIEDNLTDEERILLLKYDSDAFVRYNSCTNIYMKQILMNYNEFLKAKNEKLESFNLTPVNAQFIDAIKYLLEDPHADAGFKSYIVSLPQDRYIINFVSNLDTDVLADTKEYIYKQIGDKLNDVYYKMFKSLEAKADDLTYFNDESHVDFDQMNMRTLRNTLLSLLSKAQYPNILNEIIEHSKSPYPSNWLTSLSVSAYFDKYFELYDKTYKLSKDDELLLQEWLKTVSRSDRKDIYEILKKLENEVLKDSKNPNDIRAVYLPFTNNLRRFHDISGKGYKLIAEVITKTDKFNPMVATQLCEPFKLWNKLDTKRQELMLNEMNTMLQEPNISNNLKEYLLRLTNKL
Put plainly: P. falciparum M1AAP inhibitors, biochemical, fluorogenic H-Leu-NHMec substrate, 1536-well (AID 1445). Further details: species or system Plasmodium falciparum 3D7, 3D7.

Experiment [8] deals with Histone-lysine N-methyltransferase NSD2 (Homo sapiens, UniProt O96028). Format: biochemical.
Experiment [9] has as its target ADP-ribosylation factor GTPase-activating protein 1 (Rattus norvegicus, UniProt Q62848). Put plainly: Fluorescence polarization-based biochemical high throughput dose response screening assay to identify inhibitors of ADP-ribosylation factor GTPase activating protein 1 (ARFGAP1). The experiment is classed as functional.
Experiment [10] deals with Luciferin 4-monooxygenase (Photinus pyralis, UniProt P08659). Put plainly: firefly luciferase enzyme inhibitors, dose response, biochemical, luminescence (AID 1891).
The nature of experiment [11]: cytotoxicity toward DRD oncogenic fibroblasts, dose response, cell-based, non-viral oncogenic, luminescence (AID 1934). Format: functional. As to conditions: Homo sapiens.
The test system of experiment [12] is Vero. As to the kind of experiment: Vero cell cytotoxicity, cytotoxicity control for flavivirus capping enzyme inhibitors (AID 588742). Format: functional. Particulars: Chlorocebus sabaeus.
The test system of experiment [13] is BJ. As to the kind of experiment: cells. Format: functional, cell-based. As to conditions: Homo sapiens.
Experiment [14] has as its target Glucose-6-phosphate 1-dehydrogenase (Homo sapiens, UniProt P11413). Put plainly: human G6PD enzyme inhibitors, dose response, selectivity assay for P. falciparum G6PD inhibitor project, biochemical, fluorescence (AID 504792). The experiment is classed as functional.
The subject of experiment [15] is BJ. As to the kind of experiment: cytotoxicity toward BJ-TERT-LT-ST fibroblasts, dose response, cell-based, RAS-independent, luminescence (AID 1935).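 Further: BJ fibroblasts immortalized with TERT plus LT and ST oncogenes.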 Format: functional. Particulars: Homo sapiens.
In experiment [16] the target is T5, Sentrin-specific protease 8 (Homo sapiens, UniProt Q96LD8).
T5 sequence (Q96LD8 whole entry): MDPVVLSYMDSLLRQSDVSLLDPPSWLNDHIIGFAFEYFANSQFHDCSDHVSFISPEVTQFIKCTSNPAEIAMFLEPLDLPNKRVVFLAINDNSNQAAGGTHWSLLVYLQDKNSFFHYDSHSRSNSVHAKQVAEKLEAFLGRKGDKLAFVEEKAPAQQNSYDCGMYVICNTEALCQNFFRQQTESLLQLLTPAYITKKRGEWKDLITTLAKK
The experiment is classed as functional.

Experiment [17] deals with BJ. Put plainly: cytotoxicity toward BJ-TERT fibroblasts, dose response, cell-based, RAS-independent, luminescence (AID 1933). The experiment is classed as functional. Particulars: Homo sapiens.
Experiment [18] can be described thus: Luminescence Cell-Based Dose Confirmation HTS to Identify Inhibitors of Platelet Dense Granule Release. [Related pubchem assays: 1663 (Primary HTS), 1678 (Summary of Project)]. Format: functional.
The target in experiment [19] is T5, Sentrin-specific protease 8. The experiment is classed as functional. The source holds these as a separate data set.
For experiment [20], the target named is Genome polyprotein (dengue virus type 2, UniProt P29990). Put plainly: Dengue-2 NS5 methyltransferase inhibitors, primary screen, biochemical, confirmation dose response (AID 588689). Format: functional.
For experiment [21], the target named is Heat shock protein HSP 90-alpha (Homo sapiens, UniProt P07900). Format: functional, organism-based.
Experiment [22] addresses T6, Probable nicotinate-nucleotide adenylyltransferase (Staphylococcus aureus (strain N315), UniProt P65502). The experiment is classed as functional, Staphylococcus aureus subsp. aureus N315. As to conditions: read-out: IC50_Mean.
For experiment [23], the target named is T6, Probable nicotinate-nucleotide adenylyltransferase. Format: functional, Staphylococcus aureus subsp. aureus N315.

Chain of Beta-galactosidase (Q8VNN2 whole entry): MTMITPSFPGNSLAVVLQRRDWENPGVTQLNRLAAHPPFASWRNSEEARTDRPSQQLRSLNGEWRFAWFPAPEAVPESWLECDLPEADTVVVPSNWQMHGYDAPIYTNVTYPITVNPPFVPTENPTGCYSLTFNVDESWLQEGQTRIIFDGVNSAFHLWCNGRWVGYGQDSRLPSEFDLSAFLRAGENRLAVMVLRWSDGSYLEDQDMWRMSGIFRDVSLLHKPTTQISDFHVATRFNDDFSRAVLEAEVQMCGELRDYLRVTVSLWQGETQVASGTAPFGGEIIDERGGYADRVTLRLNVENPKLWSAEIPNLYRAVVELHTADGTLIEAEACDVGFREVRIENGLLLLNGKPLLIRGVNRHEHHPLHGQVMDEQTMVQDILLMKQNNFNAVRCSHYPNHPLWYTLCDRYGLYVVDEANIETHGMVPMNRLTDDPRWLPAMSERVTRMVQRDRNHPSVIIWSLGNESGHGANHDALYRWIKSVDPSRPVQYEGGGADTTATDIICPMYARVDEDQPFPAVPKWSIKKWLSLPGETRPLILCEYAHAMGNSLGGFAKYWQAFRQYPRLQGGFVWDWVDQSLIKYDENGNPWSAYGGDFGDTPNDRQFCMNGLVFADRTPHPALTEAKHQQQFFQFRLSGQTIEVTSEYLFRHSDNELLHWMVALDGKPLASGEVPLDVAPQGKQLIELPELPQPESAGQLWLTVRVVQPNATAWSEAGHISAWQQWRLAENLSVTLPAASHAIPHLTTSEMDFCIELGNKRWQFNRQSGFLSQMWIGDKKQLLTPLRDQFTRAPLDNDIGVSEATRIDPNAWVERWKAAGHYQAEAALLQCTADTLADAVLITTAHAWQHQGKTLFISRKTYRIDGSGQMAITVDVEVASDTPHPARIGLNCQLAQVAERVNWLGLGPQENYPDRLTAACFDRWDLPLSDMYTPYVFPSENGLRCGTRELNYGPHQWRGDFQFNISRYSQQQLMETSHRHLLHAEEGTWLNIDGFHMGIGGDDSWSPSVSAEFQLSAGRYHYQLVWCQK
Chain of ADP-ribosylation factor GTPase-activating protein 1 (Q62848 whole entry): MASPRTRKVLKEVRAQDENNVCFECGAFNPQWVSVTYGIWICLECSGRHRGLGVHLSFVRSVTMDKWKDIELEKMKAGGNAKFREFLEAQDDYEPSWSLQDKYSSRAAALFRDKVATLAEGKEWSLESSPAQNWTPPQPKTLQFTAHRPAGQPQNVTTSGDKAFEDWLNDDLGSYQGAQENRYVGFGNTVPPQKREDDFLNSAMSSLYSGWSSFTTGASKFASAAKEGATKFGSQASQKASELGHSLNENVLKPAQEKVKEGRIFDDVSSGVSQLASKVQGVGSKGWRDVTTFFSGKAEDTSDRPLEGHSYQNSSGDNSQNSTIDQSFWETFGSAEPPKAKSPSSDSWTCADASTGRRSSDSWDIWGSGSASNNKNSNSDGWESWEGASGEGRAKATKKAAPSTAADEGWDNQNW
T6 sequence (P65502 whole entry): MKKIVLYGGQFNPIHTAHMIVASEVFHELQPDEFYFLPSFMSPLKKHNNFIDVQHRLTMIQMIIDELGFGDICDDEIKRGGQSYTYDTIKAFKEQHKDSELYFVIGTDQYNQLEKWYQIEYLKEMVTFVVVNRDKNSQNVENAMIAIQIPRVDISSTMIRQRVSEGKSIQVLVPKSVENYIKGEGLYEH
Chain of Luciferin 4-monooxygenase (P08659 whole entry): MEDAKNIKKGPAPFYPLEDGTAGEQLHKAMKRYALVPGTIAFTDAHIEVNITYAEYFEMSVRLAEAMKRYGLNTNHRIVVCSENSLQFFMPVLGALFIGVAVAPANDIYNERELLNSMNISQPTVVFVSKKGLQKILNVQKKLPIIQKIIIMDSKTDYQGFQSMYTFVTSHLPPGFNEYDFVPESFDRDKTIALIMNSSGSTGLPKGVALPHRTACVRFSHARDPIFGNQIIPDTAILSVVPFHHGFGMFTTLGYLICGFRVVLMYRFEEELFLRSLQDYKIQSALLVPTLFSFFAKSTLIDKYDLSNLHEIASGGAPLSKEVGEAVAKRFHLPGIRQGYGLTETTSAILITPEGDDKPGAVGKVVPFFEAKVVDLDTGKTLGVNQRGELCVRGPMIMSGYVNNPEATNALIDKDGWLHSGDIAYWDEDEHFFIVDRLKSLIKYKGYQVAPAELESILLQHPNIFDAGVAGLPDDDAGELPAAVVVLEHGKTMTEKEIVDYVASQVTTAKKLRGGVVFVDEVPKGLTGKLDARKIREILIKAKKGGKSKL
Chain of Genome polyprotein (P29990 2492-3391 limits assumed): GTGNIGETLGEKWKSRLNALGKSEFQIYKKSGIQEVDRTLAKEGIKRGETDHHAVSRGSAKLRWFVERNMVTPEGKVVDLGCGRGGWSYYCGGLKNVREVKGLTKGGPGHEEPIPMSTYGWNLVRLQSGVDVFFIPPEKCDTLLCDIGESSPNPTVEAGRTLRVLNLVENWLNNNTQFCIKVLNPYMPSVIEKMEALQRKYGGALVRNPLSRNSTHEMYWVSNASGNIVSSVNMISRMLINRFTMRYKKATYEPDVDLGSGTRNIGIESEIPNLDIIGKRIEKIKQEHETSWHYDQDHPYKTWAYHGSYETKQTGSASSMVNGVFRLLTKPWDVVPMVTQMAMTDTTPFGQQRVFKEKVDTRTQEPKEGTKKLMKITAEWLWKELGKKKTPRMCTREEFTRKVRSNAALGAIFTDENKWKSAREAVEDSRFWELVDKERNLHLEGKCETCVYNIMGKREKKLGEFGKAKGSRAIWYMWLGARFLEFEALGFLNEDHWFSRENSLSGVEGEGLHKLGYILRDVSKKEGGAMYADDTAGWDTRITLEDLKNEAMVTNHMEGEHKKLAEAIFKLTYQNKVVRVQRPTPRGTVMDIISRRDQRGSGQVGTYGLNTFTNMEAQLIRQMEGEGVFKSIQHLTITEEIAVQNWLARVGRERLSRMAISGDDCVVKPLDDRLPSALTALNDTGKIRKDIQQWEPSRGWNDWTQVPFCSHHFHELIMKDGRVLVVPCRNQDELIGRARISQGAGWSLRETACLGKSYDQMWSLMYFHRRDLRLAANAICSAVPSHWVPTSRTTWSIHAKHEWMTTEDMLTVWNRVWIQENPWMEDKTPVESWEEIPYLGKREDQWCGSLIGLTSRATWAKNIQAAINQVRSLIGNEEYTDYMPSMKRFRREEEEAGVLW
Chain of Glucose-6-phosphate 1-dehydrogenase (P11413 whole entry): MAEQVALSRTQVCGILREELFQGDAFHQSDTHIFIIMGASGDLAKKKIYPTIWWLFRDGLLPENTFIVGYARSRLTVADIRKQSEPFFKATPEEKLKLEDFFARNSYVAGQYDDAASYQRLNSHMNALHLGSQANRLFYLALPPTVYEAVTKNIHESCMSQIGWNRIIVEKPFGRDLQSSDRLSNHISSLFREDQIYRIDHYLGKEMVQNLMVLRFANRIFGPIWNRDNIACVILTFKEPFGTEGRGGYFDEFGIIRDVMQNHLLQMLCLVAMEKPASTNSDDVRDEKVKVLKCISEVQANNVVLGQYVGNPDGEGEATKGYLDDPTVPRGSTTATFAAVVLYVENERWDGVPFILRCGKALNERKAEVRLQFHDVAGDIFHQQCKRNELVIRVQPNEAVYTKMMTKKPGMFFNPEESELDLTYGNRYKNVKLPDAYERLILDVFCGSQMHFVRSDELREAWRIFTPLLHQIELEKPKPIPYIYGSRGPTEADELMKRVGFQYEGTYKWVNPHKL
Chain of Histone-lysine N-methyltransferase NSD2 (O96028 whole entry): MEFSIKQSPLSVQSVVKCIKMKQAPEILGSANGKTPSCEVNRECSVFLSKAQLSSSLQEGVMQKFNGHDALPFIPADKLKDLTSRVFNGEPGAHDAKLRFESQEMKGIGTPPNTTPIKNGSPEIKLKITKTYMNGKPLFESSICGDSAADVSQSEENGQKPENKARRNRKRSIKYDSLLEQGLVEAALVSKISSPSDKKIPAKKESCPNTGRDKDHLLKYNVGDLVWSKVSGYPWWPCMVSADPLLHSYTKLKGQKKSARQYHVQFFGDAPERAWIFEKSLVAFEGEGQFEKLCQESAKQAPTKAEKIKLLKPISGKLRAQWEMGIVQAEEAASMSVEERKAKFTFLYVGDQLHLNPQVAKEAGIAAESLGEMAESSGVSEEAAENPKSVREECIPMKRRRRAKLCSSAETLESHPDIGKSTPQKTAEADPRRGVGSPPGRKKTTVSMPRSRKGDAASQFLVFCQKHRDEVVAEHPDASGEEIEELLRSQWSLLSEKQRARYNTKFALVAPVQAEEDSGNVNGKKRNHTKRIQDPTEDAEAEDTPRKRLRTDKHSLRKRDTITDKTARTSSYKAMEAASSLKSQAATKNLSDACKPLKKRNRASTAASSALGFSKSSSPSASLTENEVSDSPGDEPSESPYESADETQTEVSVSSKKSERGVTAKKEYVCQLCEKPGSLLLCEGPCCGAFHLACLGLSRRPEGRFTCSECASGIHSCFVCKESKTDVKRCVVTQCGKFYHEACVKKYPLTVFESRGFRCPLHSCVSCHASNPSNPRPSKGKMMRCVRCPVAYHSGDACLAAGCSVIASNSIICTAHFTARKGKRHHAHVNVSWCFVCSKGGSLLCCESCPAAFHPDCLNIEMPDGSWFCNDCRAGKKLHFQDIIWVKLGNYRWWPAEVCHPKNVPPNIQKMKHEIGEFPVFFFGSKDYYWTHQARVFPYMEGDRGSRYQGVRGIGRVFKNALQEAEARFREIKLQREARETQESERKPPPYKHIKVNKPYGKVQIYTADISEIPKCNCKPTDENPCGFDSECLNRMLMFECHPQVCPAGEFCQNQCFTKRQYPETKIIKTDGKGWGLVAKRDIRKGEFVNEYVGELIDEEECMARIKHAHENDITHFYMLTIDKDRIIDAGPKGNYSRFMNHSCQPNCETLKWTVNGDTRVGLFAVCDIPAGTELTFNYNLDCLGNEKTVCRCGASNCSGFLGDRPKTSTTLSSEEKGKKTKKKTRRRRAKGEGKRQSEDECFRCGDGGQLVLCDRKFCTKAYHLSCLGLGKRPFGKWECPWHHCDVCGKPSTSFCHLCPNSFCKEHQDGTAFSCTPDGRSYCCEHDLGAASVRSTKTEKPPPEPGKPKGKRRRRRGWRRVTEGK

As to `O=C(/C=C/c1ccc(F)cc1)N1CCN(c2ncccn2)CC1`, the IC50 in experiment [1] was > 80 µM (inactive).
Regarding `CCOc1cc(Br)cc(/C=C2\SC(Nc3ccccc3)=NC2=O)c1O`, the IC50 in experiment [2] was 12.7 µM (not active); in experiment [3], 5.76 µM (active); in experiment [4], 35.1 µM (not active); in [5], 1.18 µM (active).
`Cc1ccc(S(=O)(=O)NC2=NC(=O)/C(=C/c3ccc(Br)o3)S2)cc1`: the values for the IC50 in experiment [6] and in [7] were 7.47 µM (active) and 42.1 µM (active), respectively. Moreover, the concentration at half-maximal activity (AC50) in [8] was 14.1 µM (active).
Regarding `CCOc1ccc2oc(C(=O)OCC(=O)N3CCCC(C)C3)c(C)c2c1` (centres undefined), the IC50 in experiment [9] was 69.8 µM (inactive).
In the case of `COc1cccc2nc3cc(C)c(C)cc3nc12`, the EC50 in experiment [10] was 0.923 µM (active); in experiment [11], 3.01 µM (active); in experiment [13], 3.05 µM (active); in experiment [15] it was 12.2 µM (inconclusive); in [17], 3.31 µM (active); in experiment [18], 7.02 µM (active). For the same compound, the CC50 in experiment [12] is 11.7 µM (active). The IC50 in experiment [14] is 37.1 µM (inactive); in experiment [16] it was 8.2 µM (active); in experiment [19] it was 8.48 µM (active); in experiment [20] it was 62.2 µM (active).
On to `COc1ccc([C@H]2CC(=O)C=C(c3cccc(Cl)c3O)C2)cc1OC`, for which the IC50 in [3] was 8.62 µM (active); in experiment [5], 4.36 µM (active).
`CCOc1ccc(Br)cc1C1=NN(C(C)=O)C(c2ccc([N+](=O)[O-])s2)O1` (centres undefined): the values for the IC50 in [16] and in experiment [19] were 9.04 µM (active) and 11 µM (active), respectively. In addition, the AC50 in experiment [21] was 7.83 µM (active).
With `COc1ccc(OC)c(/C=C/C(=O)OCC(=O)Nc2nnc(-c3ccccc3)o2)c1`, the IC50 in [22] was 42.5 µM (active); in experiment [23] it was 9.28 µM (active).
`NC(=O)c1ccc(NC(=O)COC(=O)/C=C/c2cn(-c3ccccc3)nc2-c2cccnc2)cc1`: the IC50 in [9] was 57.4 µM (inactive).
Regarding `COc1ccc(OCC(=O)N2CCN(c3nnc(-c4ccc(C)cc4)c4ccccc34)CC2)cc1`, the IC50 in experiment [1] was > 80 µM (inactive).
